Measurements from US6649797B2, “Compounds and methods of use to treat infectious diseases” (The Picower Institute for Medical Research, priority 1996, dated 2003).
Structures can show the parent of a compound that is named as a salt. Where two headings read alike, the source gives them in different places.

Legend:
[1] = system: HIV-1ADA; experiment: Anti-HIV activity in primary human monocytes, day 9 (Table IX, FIG. 12C); type: cell-based; details: Human immunodeficiency virus 1, Monocyte, 216 h; day 9 after infection; >10 μM = 50% inhibition not achieved at maximal concentration; read-out: IC50
Experimental: Monocytes infected with HIV-1ADA were cultured in the presence of CNI-H0294 and CNI-H3094 in various concentrations. Nine days after infection, RT activity in culture supernatants was quantified. The results are presented as percent of total RT activity in untreated cultures (control). Three independent samples were assayed for each drug concentration, and the standard deviation was less than 15%.
[…] A 50% inhibitory concentration (IC50) was determined at day 9 after infection.

[2] = system: macrophage-tropic strain of HIV-1; experiment: Inhibition of HIV-1 replication in peripheral blood-derived macrophages (IC50, RT or p24 in medium); type: cell-based; details: Human immunodeficiency virus 1, Macrophage, 120 h; 50% inhibition of viral growth; RT or p24 in medium about day 5 or 6 post-infection
Experimental: A quantitative measurement of the activity of the compounds of the invention to block the replication of HIV-1 in non-dividing cells can be determined by culture of a macrophage-tropic strain of HIV-1 on peripheral blood-derived macrophages. The cells are cultured for 5-6 days prior to infection in a medium consisting of DMEM supplemented with 10% type A/B human serum and 200 U/ml Macrophage Colony Stimulating Factor, with half the medium changed after 3 days, to reach a density of about 10^6 cells per 5 ml well. A macrophage-tropic viral stock may be grown on these cells. The concentration of infectious particles in the stock is estimated by measurement of p24 antigen concentration.
To test the effect of compounds of the invention on HIV-1 infection in the above-described culture system, the medium is removed and replaced with medium containing HIV-1 at a concentration of 1 ng of p24 (10^4 TCID50/ml (TCID=tissue culture infectious doses)) and a known concentration of the compound of the invention (the inhibitor). After 24 hours, the cultures are washed to remove non-adherent virus and the culture is re-fed with medium containing the inhibitor at the desired concentration. The amount of replication of HIV-1 is estimated by an assay of the reverse transcriptase activity or by an assay of the concentration of p24 antigen in the culture medium every 2-3 days throughout the post-infection period. In a preferred embodiment the anti-HIV potency of the candidate drug is measured by comparison of the concentration of reverse transcriptase (RT) or of p24 antigen in the medium of the treated and control cultures at the time of the peak of these values in non-treated control cultures, that is about day 5 or 6 post-infection. Repetition at various levels of inhibitor allows for the calculation of the concentration of inhibitor that achieves 50% inhibition of viral growth, IC50. Table I discloses the IC50 of various inhibitors.

[3] = In vitro metabolism with mouse liver post-mitochondrial supernatant and NADPH; type: in vitro ADME; details: for metabolic conversion (drug altered, as judged by peak area): 60 min incubation
Experimental: Several female ND4 Swiss Webster mice were euthanized by carbon dioxide inhalation and the livers excised and rinsed with ice cold phosphate buffered saline (pH 7.4). The livers were minced, gently homogenized in 50 mM phosphate buffer (pH 7.4) with a Dounce homogenizer, and centrifuged at 9600× g for 20 min. The post-mitochondrial supernatant was kept, glycerol added to 20%, and frozen at −70° C in 1.0 ml aliquots until used. For each incubation, 1.0 ml of a 1.0 mg/ml drug solution was added to 3.0 ml of 50 mM phosphate buffer (pH 7.4), 1.0 ml of 2 mg/ml NADPH in 50 mM phosphate (pH 7.4), and 1.0 ml of the post-mitochondrial supernatant. Five hundred μl of each incubate was then immediately transferred to an ice-cold tube to provide the zero-time sample, and addition 500 μl aliquots removed to ice-cold tubes at 8, 15, 30, and 60 min. The samples were then extracted, and analyzed by HPLC as described in section 7.1. Control incubations were also performed where drug or post-10 mitochondrial supernatant was omitted. […] Peaks in the CNI compound incubations which increased over time, and were not present in control samples lacking the enzyme preparation were treated as putative metabolites.

[4] = Pharmacokinetics in mice (plasma, HPLC); type: in vivo, mouse; details: for Dose: calculated from clearance for target serum conc. (No. 2: 10 nM; No. 11: 50 nM; No. 15: 15 nM); for AUC / Cmax / Tmax / bioavailability: female, ND4 Swiss Webster, plasma; for Tmax: read-out: tmax (converted)
Experimental: Standard addition curves for each test compound were constructed by adding increased amounts of drug to mouse or human A^+ plasma (Long Island Blood Services; Melville, N.Y). […] The column was washed with 1.0 ml of water and then eluted with 1.0 ml of 10 mM tetramethylammonium chloride/10 mM heptane sulfonate/4.2 mM H3PO4/95% CH3CN/5% H2O (Buffer C). The eluted sample was reduced to dryness in a rotary evaporator and resuspended in 1.0 ml Buffer A.
Two hundred μl of the resuspended sample was injected onto a Hewlett-Packard model 1090 high performance liquid chromatography system (HPLC)(Wilmington, Del.) equipped with a photodiode array ultraviolet/visible spectrophotometric detector, autosampler, and Chemstation operating software. The column used was a 250×4.6 mm Zorbax RX-C8 column (Mac-Mod Analyticals; Chadd's Ford, Pa.) kept at room temperature and run at 1.5 ml/min. The mobile phase used was Buffer A and 10 mM tetramethylammonium chloride/10 mM heptane sulfonate/4.2 mM H3PO4/75% CH3CN/25% H2O (Buffer B), with all runs initiated at 10% Buffer B. A linear 30 min gradient to 60% Buffer B was then performed, followed by a 4 min reverse gradient to initial conditions.
Female ND4 Swiss Webster mice (21-24 g) were obtained from Harlan Sprague Dawley (Indianapolis, Ind.) and randomly placed in groups of five in cages with free access to food and water. […] The other CNI compounds were administered intraperitoneally or by oral gavage as a solution in water titrated with sufficient HCl to dissolve the drug. At various time points, ranging from 5 min to 4 days, a single group of animals was euthanized by carbon dioxide inhalation and bled by cardiac puncture using heparin as an anticoagulant. The blood from the five mice in the group was pooled and centrifuged at 14000× g for 10 min. The volume of plasma was measured, and equal volume of Buffer A added, and the mixture extracted and analyzed as described above, except that the dried eluates were resuspended in 200 μl Buffer A and 100 μl was injected onto the high performance liquid chromatography (HPLC) system.
The area under the plasma concentration-time curve (AUC) was determined, and bioavailability was measured as AUCoral/AUCi.p. A and B represent the zero time intercept of the distribution and elimination phases respectively, and a and β the respective slopes of the phases multiplied by 2.303. The t/2α and t1/2β are calculated half-lives of the drug in each phase (0.693/α and 0.693/β respectively). The volume of distribution (VD) was calculated as dose/B, and the total clearance rate (Cltot) calculated as β*VD. Cmax and tmax are the maximal plasma concentration and time of this measurement, respectively.

[5] = Toxicity in mice, median lethal dose by intraperitoneal injection; type: in vivo, mouse; details: for LD50: mouse, in vivo, ip, read-out: LD50 ± standard deviation
Experimental: The doses of compounds of the invention found to be lethal to 50% of the mice (LD50) were determined by intraperitoneal injection of groups of five animals with increasing doses of each compound. CNI-0294 was administered from 0, 2, 10, 20, 40, 80, 160, 320, 640, 1280 mg/kg in 0.5 ml of water/HCl; CNI-1594 at 0, 2.4, 5, 10, 20, 40, 80 mg/kg in 0.5 ml of water/HCl; CNI-1794 at 0, 20, 50, 80 mg/kg in 0.5 ml of water/HCl; and CNI-1894 at 0, 10, 20, 40, 80, 240, 480, 960 mg/kg in water/HCl. […] The percentage of animals in each group which died were utilized to calculate the LD50 by non-linear curve fitting with the Enzfit software (Elsevier Bioscience; Cambridge, UK) programmed with the Chou equation (Chou 1976, J Theor Biol 39:253-276)).

[6] = system: HIV-1; experiment: HIV-1 production in cultured monocytes at fixed 100 nM; type: cell-based; details: monocytes infected 10 days prior to assay (10 ng p24/10^6 cells), percentage of untreated control
Experimental: Alternatively, the compounds may all be compared for inhibition of HIV replication at a fixed concentration. Presented in Table II are compounds that were used at a concentration of 100 nM to inhibit the production of HIV-1 in cultured monocytes infected with HIV-1 10 days prior to assay (10 ng of p24/10^6 cells). The production of HIV-1 in each treated culture is reported as percentage of untreated control.

[7] = system: Plasmodium falciparum; experiment: Antimalarial activity in vitro, [3H]-hypoxanthine incorporation; type: cell-based; details: clone Dd2
Excerpt: The antimalarial properties of the compounds of the invention can be analyzed by techniques, assays and experimental animal models well known in the art. For example, the inhibition of growth of Plasmodium falciparum in vitro by the compounds may be assessed by the hypoxanthine-incorporation method (Desjardins et al., 1979, Antimicrob. Ag. Chemother. 16:710-718). […] The in vivo efficacy of the compounds can also be tested in mouse models in which parasitemia is enumerated following administration of the compound (Ager, A. L. 1984, Rodent malaria models, pp 225-264. In Handbook of Experimental Pharmacology vol. 68, Antimalarial Drugs, Peters and Richards eds, Springer-Verlag, Berlin).
The antimalarial activity of the compounds was determined essentially as described in Desjardins et al. supra. Fifty μl of various concentrations of a compound of the invention, chloroquine, or pyrimethamine were added to the wells of microtiter plates, followed by 200 μl of ring-stage, synchronized, P. falciparum-infected erythrocytes (final hematocrit=1.5%, final parasitemia=1-5%). The plates were incubated for 24 hr in a candle jar kept at 37° C., and then 25 μl of [^3H]-hypoxanthine (Amersham, Arlington Heights, ILL.; 2.5 μl Ci/well) was added. The plates were then incubated for a further 24 hr, before harvesting onto Unifilter-96 GF/C filter-microplates (Packard; Meriden, Conn.). Twenty-five μl of Microscint scintillation fluid (Packard) was added to each well of the filter-microplate, which was subsequently counted in a Top-count microplate scintillation counter (Packard). The percent of [^3H]-hypoxanthine uptake relative to control infect-erythrocytes was used to determine the IC50 value for the compounds by non-linear regression for LD50 determination.

[8] = mouse, ip, 20 mg/kg, vehicle water
[9] = mouse, i.p., 20 mg/kg, vehicle water
[10] = mouse, ip, 50 mg/kg, vehicle water
[11] = mouse, po, 50 mg/kg, vehicle water
[12] = mouse, i.p., 50 mg/kg, vehicle water

`CC(=O)c1cccc(Nc2cc(C)[n+](C)c(N)n2)c1` [Compound No. 14, 4-(3-acetylphenyl)amino-2-amino-1,6-dimethylpyrimidinium iodide] showed an IC50 [1] of 1000 nM and an IC50 [2] of 10 nM.

For `CC(=O)c1cccc(Nc2cc(C)nc(N)n2)c1` [Compound No. 15, 4-(3-acetylphenyl)amino-2-amino-6-methylpyrimidine], the metabolites produced [3] was “three minor and one major metabolite”, the “metabolic conversion (drug altered, as judged by peak area)” value [3] was 11.74% and the IC50 [2] was 15 nM. The Dose [4] was 5.70 mg/Kg day, the AUC [4, 8] was 820 ng·h/mL and the Cmax [4, 8] was 1930 ng/mL. The Tmax ([4]; ip, mouse, i.p., 20 mg/kg, vehicle water) was 15 min, the “A (zero time intercept of the distribution phase)” value [4, 9] was 1.10 µg/mL and the “B (zero time intercept of the elimination phase)” value [4, 9] was 0.01 µg/mL. For the same compound, the Cltot [4, 9] was 26.40 mL/min, the t1/2α [4, 9] was 19.2 min and the t1/2β [4, 9] was 1040 min. The α [4, 9] was 2.14 h⁻¹, the β [4, 9] was 0.04 h⁻¹ and the “visible signs of toxicity” value [5] was “death occurring in minutes and the animals displaying signs of acute neurotoxicity”. The LD50 [5] was 49.04 ± 0.08 mg/kg.

In the case of `CC(=O)c1cc(Nc2nc(N)nc(N)n2)cc(C(C)=O)c1` [Compound No. 13, 2-(3,5-diacetylphenyl)amino-4,6-diamino-1,3,5-triazine], the “Viral Production” value [6] is reported as 14% and the melting point is reported as 271 to 272 °C.

In the case of `CC(=O)c1cc(Nc2cc(C)nc(N)n2)cc(C(C)=O)c1` [Compound No. 11, 2-amino-4-(3,5-diacetylphenyl)amino-6-methylpyrimidine], the metabolites produced [3] is reported as “three minor and one major metabolite”, the “metabolic conversion (drug altered, as judged by peak area)” value [3] is reported as 65.19% and the “less active than CNI-0294” value [7] is reported as “approximately 5 fold”. For the same compound, the IC50 [2] was 50 nM, the Dose [4] was 13.3 mg/Kg day and the AUC [4, 10] was 3930 ng·h/mL. It also gave a Cmax [4, 10] of 5700 ng/mL, a bioavailability ([4]; mouse, oral, mice, single 50 mg/kg dose, AUCoral against AUCi.p., read-out: relative bioavailability) of 15% and an AUC [4, 11] of 570 ng·h/mL. It also gave a Cmax [4, 11] of 350 ng/mL, a Tmax ([4]; ip, mouse, i.p., 50 mg/kg, vehicle water) of 15 min and a bioavailability ([4]; mouse, oral, 50 mg/kg, vehicle water, AUCoral/AUCi.p., read-out: Bioavailability) of 15%. For the same compound, the Tmax ([4]; mouse, oral, 50 mg/kg, vehicle water) was 15 min, the maximal plasma level ([4]; mice, oral, single 50 mg/kg dose) was 0.35 µg/mL and the “A (zero time intercept of the distribution phase)” value [4, 12] was 5.22 µg/mL. For the same compound, the “B (zero time intercept of the elimination phase)” value [4, 12] was 0.14 µg/mL, the Cltot [4, 12] was 16.50 mL/min and the VD [4, 12] was 5.21 L. The t1/2α [4, 12] was 22.8 min, the t1/2β [4, 12] was 219 min and the α [4, 12] was 1.83 h⁻¹. The β [4, 12] was 0.19 h⁻¹, the “visible signs of toxicity” value [5] was “well tolerated” and the LD50 [5] was over 160 mg/kg.

For `CC(=O)c1cc(NC(=N)NC(=N)N)cc(C(C)=O)c1.Cl` [Compound No. 12, N-(3,5-diacetylphenyl)biguanide hydrochloride], the “Viral Production” value [6] was 12% and the melting point was 260 to 270 °C (dec.).

With `CC(=O)c1cccc(Nc2cc(C)[n+](C)c(N)n2)c1` (as salt: iodide) [Compound No. 14, 4-(3-acetylphenyl)amino-2-amino-1,6-dimethylpyrimidinium iodide] the melting point was 238 to 240 °C.
